In patent publication EP4603105A1, “PHARMACEUTICAL COMPOSITION CONTAINING CYCLIC COMPOUND HAVING SELECTIVE KRAS INHIBITORY EFFECT AGAINST HRAS AND NRAS” (CHUGAI SEIYAKU KABUSHIKI KAISHA, priority 2022, dated 2024):
*1 amine or outer side, *2 acyl side, *3 side chain or, on linkers, in order; H or OH if unused. Where a SMILES comes first, the peptide text is derived from it. Bridges are numbered along the chain shown (N, C = ends). [ ]: non-standard residue; d: D form. The star is where a group is joined. hPhe(3-Cl-4-CF3) = N[C@@H](CCc1ccc(C(F)(F)F)c(Cl)c1)C(=O)O; NPrPhe(4-CF3) = CCCN[C@@H](Cc1ccc(C(F)(F)F)cc1)C(=O)O; X50 = C=CCN([C@@H](Cc1ccc(C)cc1)C(=O)[*:2])[*:1]; NMeGly(cPent) = CN[C@H](C(=O)O)C1CCCC1; Hyp = O=C(O)[C@@H]1C[C@@H](O)CN1; NMeD = CN[C@@H](CC(=O)O)C(=O)O; NMeL = CN[C@@H](CC(C)C)C(=O)O; Morpholide = C1CN(*)CCO1; Ac5c = NC1(C(=O)O)CCCC1; Ac4c = NC1(C(=O)O)CCC1; Sar = CNCC(=O)O

What was measured:
[1] = molecular target: GDP-bound NRAS wild-type protein (Homo sapiens, UniProt P01111); assay: Binding to NRAS by surface plasmon resonance (SPR), KD and KD ratio to KRAS
GDP-bound NRAS wild-type protein, sequence (P01111 whole entry): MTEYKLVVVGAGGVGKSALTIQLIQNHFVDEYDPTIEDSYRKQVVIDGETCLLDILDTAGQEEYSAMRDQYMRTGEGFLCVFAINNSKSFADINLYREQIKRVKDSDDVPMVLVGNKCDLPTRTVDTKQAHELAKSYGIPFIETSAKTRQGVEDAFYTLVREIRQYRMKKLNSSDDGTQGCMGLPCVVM
Method in brief: (§1)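 Running buffer contained 10 µM GDP and 10 mM MgCl2 to keep RAS in the GDP state, with 4% DMSO at pH 7.4. Compounds were flowed at 100 µL/min in 75 s steps of rising concentration over captured biotin-Avi RAS at 30°C. Sensorgrams were fitted 1:1 for KD.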

HRAS wild-type protein = HRAS wild-type protein (Homo sapiens, UniProt P01112); assay: Binding to HRAS by surface plasmon resonance (SPR), KD and KD ratio to KRAS
HRAS wild-type protein, sequence (P01112 whole entry): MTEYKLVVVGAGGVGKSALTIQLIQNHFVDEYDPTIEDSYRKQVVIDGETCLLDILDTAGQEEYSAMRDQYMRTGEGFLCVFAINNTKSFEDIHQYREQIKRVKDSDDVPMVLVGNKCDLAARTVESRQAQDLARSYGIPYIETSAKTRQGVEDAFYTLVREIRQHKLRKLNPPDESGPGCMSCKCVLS
Method in brief: as §1

[2] = system: human lung cancer strain NCI-H441; type: cell-based
Method in brief: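 Step one: dispense the test compound in serial DMSO dilutions. Step three: add the reagent and measure […].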

[3] = ratio of KD for GDP-bound NRAS wild-type protein to KD for KRAS
[4] = ratio of KD for HRAS wild-type protein to KD for KRAS
[5] = ratio of the KD value with respect to GDP-bound NRAS wild-type protein to the KD value with respect to KRAS
[6] = ratio of the KD value with respect to HRAS wild-type protein to the KD value with respect to KRAS

IC50 [2] | SMILES | NRAS /KRAS [1, 3] | HRAS /KRAS (HRAS wild-type protein; [4]) | NRAS /KRAS ([1]; ratio of KD value for GDP-bound NRAS wild-type protein to KD value for KRAS (SPR)) | HRAS /KRAS (HRAS wild-type protein; ratio of KD value for HRAS wild-type protein to KD value for KRAS (SPR)) | NRAS /KRAS [1, 5] | HRAS /KRAS (HRAS wild-type protein; [6])
80.2 nM | CCCN1C(=O)CN(C)C(=O)CNC(=O)[C@H]([C@@H](C)CC)NC(=O)[C@H](CC(C)C)N(C)C(=O)C[C@@H](C(=O)N(C)C)NC(=O)[C@H](C2CCCC2)N(C)C(=O)C2(CCC2)NC(=O)[C@@H]2C[C@@H](OCC)CN2C(=O)[C@H](CCc2ccc(C(F)(F)F)c(Cl)c2)NC(=O)CN(C)C(=O)[C@@H]1Cc1ccc(C(F)(F)F)cc1 [PP0366] ([NMeL]IG[Sar][NPrPhe(4-CF3)][Sar][hPhe(3-Cl-4-CF3)][Hyp](Et)[Ac4c][NMeGly(cPent)]D-NMe2; lactam N-11) | B (a compound having 3 or more and less than 10 is denoted as B) | B (a compound having 3 or more and less than 10 is denoted as B) | – | – | – | –
24.3 nM | C=CCN1C(=O)CN(C)C(=O)CN(C)C(=O)[C@H]([C@@H](C)CC)NC(=O)[C@H](CC(C)C)N(C)C(=O)C[C@@H](C(=O)N2CCOCC2)N(C)C(=O)[C@H](C2CCCC2)N(C)C(=O)C2(CCCC2)NC(=O)[C@@H]2CCCN2C(=O)[C@H](CCc2ccc(C(F)(F)F)c(Cl)c2)NC(=O)CN(C)C(=O)[C@@H]1Cc1ccc(C)cc1 [PP0100] ([NMeL]I[Sar][Sar][X50][Sar][hPhe(3-Cl-4-CF3)]P[Ac5c][NMeGly(cPent)][NMeD]-Morpholide; lactam N-11) | B (a compound having 3 or more and less than 10 is denoted as B) | C (A compound having a KD ratio of 0.1 or more and less than 3 is denoted as C) | – | – | – | –
133 nM | CCO[C@@H]1C[C@H]2C(=O)NC3(CC(C)(C)C3)C(=O)N(C)[C@@H](CC3CCC3)C(=O)N(C)[C@H](C(=O)N(C)C)CC(=O)N(C)[C@@H](COC)C(=O)N[C@@H]([C@@H](C)CC)C(=O)N(C3CC3)CC(=O)N(C)[C@H]3C/C=C\CCN(C3=O)[C@@H](Cc3ccc(C(F)(F)F)cc3)C(=O)N(C)CC(=O)N[C@@H](CCc3cc(F)c(C(F)(F)F)c(F)c3)C(=O)N2C1 [PP2769] | AA (a compound having 20 or more is denoted as AA) | A (a compound having 10 or more and less than 20 is denoted as A) | – | – | – | –
2.8 nM | CCCOC[C@H]1C(=O)N[C@@H]([C@@H](C)CC)C(=O)N(C)CC(=O)N(C)[C@H]2C/C=C\CCN(C2=O)[C@@H](Cc2ccc(C(F)(F)F)cc2)C(=O)N(C)CC(=O)N[C@@H](CCc2cc(F)c(C(F)(F)F)c(F)c2)C(=O)N2C[C@H](OCC)C[C@H]2C(=O)NC2(CCC2)C(=O)N(C)[C@@H](C2CCCC2)C(=O)N(C)[C@H](C(=O)N(C)CC)CC(=O)N1C [PP1569] | – | – | A (a compound having 10 or more and less than 20 is denoted as A) | B (a compound having 3 or more and less than 10 is denoted as B) | – | –
13.7 nM | CCO[C@@H]1C[C@H]2C(=O)NC3(CC(C)(C)C3)C(=O)N(C)[C@@H](C(CC)CC)C(=O)N(C)[C@H](C(=O)N(C)C)CC(=O)N(C)[C@@H](CC)C(=O)N[C@@H]([C@@H](C)CC)C(=O)N(C)CC(=O)N(C)[C@H]3C/C=C\CCN(C3=O)[C@@H](Cc3ccc(C(F)(F)F)cc3)C(=O)N(C)CC(=O)N[C@@H](CCc3cc(F)c(C(F)(F)F)c(F)c3)C(=O)N2C1 [PP2062] | – | – | – | – | AA (a compound having 20 or more is denoted as AA) | A (a compound having 10 or more and less than 20 is denoted as A)
32.7 nM | CCO[C@@H]1C[C@H]2C(=O)NC3(CC(C)(C)C3)C(=O)N(C)[C@@H](C3CCCC3)C(=O)N(C)[C@H](C(=O)N3CCOCC3)CC(=O)N(C)[C@@H](CC(C)C)C(=O)N[C@@H]([C@@H](C)CC)C(=O)N(C)CC(=O)N(C)[C@H]3CCCCCN(C3=O)[C@@H](Cc3ccc(C(F)(F)F)cc3)C(=O)N(C)CC(=O)N[C@@H](CCc3cc(F)c(C(F)(F)F)c(F)c3)C(=O)N2C1 [PP0726] | – | – | – | – | B (a compound having 3 or more and less than 10 is denoted as B) | B (a compound having 3 or more and less than 10 is denoted as B)
